Literature values as cited in article PMC4499460 (The Journal of organic chemistry, 2015).

Conditions: in 1 N H2SO4

For `C=C[C@H]1CN2CC[C@H]1C[C@H]2[C@H](O)c1ccnc2ccc(OC)cc12.O=S(=O)(O)O` [quinine bisulfate], the “ϕf of quantum yield reference” value is listed as 0.54.
